According to article PMC8472913 (Viruses, 2021):
Read-outs that look alike come from different tables or passages of the source.

Legend:
[1] = test system: HuNoV GI.1 replicon variants; experiment: Generation of drug-resistant HuNoV GI.1 replicon variants; format: cell-based, Human norovirus; settings: for EC50: Norovirus
GI.1 protease = GI.1 protease (Norovirus, UniProt Q83883); experiment: Cell-based FRET protease assay, GI.1 protease; set-up: species or system Human norovirus
GII protease = GII protease (Lordsdale virus, UniProt P54634); experiment: Cell-based FRET protease assay, GII protease; set-up: species or system norovirus
GV protease = GV protease (Norovirus, UniProt Q80J95); experiment: Cell-based FRET protease assay, GV protease
[2] = target: mutated GI.1 proteases (A105V, I109V, A105V/I109V) (Norovirus, UniProt Q83883, A1205V); experiment: Cell-based FRET protease assay, mutated GI.1 proteases; set-up: species or system Human norovirus; settings: versus WT
[3] = target: mutated GI.1 proteases (A105V, I109V, A105V/I109V) (Norovirus, UniProt Q83883, A1205V/I1209V); experiment: as above; set-up: species or system Human norovirus; settings: versus WT
[4] = target: mutated GI.1 proteases (A105V, I109V, A105V/I109V) (Norovirus, UniProt Q83883, I1209V); experiment: as above; set-up: species or system Human norovirus; settings: versus WT
[5] = test system: Murine norovirus (MNV, strain MNV 1.CW1); set-up: method as in earlier work; settings: read-out: EC50 against MNV; cited from earlier work
[6] = test system: Murine norovirus (MNV, strain MNV 1.CW1); experiment: MNV-induced CPE reduction assay (MTS) in RAW 264.7 cells; format: cell-based; settings: for selectivity index (SI): MNV, CC50/EC50
HuNoV GI.1 replicon [7] = experiment: HuNoV GI.1 replicon assay in HGT cells (RT-qPCR); format: cell-based, Human norovirus
[8] = test system: Murine norovirus (MNV, strain MNV 1.CW1); experiment: MNV virus yield assay, viral RNA by RT-qPCR; format: cell-based; settings: Norwalk virus, RAW264.7, RAW 264.7 cells
[9] = Cytotoxicity assay (MTS) in RAW 264.7 cells; format: cell-based; settings: mouse
HGT cells = experiment: Adverse effects on host cells of the HuNoV GI.1 replicon assay; format: cell-based; settings: up to the highest tested concentration of 100 µM
Water solubility = format: physicochemical
[10] = Pharmacokinetic studies in mice; format: in vivo; settings: CD-1 mice; for AUC(0-t) / Cmax / Tmax / bioavailability / half-life / AUC(0-inf) / MRT inf / clearance: male, mouse, serum; for AUC(0-inf): read-out: AUCINF_obs; for MRT inf: read-out: MRTINF_obs; for clearance: read-out: CL_obs
HuNoV GI.1 replicon [11] = experiment: HuNoV GI.1 replicon clearance assay; format: cell-based, Human norovirus; settings: for reduction in HuNoV GI.1 RNA: 10 µM
[12] = test system: compound 4res MNV variant; experiment: Generation of drug-resistant MNV variants; format: cell-based, Murine norovirus; settings: after 25 passages (6 months)
[13] = selection pressure: 10 µM of rupintrivir
[14] = selection pressure: 14 µM of rupintrivir
[15] = selection pressure: DMSO control
[16] = Norwalk virus, RAW264.7, read-out: MNV-EC50
[17] = Norovirus, HuNoV replicon, read-out: HuNoV-EC50
[18] = selection pressure: 6 µM of compound 4
[19] = selection pressure: 10 µM of compound 4
[20] = selection pressure: 16 µM of compound 4

CCOC(=O)/C=C/[C@H](C[C@@H]1CCNC1=O)NC(=O)[C@@H](CC(=O)[C@@H](NC(=O)c1cc(C)on1)C(C)C)Cc1ccc(F)cc1 [rupintrivir, Rupintrivir, reference compound]
EC50 [1, 13]: 9400 ± 500 nM
EC50 [1, 14]: 15000 ± 3000 nM
EC50 [1, 15]: 1000 ± 100 nM
Fold Change in EC50 [1, 13]: 9.3
Fold Change in EC50 [1, 14]: 15
Fold Change in EC50 ([1]; selection pressure: 14 µM of rupintrivir, listed as Rupintrivir): 15.2
IC50 (GI.1 protease; FRET, HEK293T cells, WT protease, read-out: IC50, GI.1 protease): 3000 nM
IC50 (GII protease; FRET, HEK293T cells, WT protease, read-out: IC50, GII protease): 12200 nM
IC50 (GV protease): 4600 nM
shift in IC50 value, A105V mutation in GI.1 protease [2]: significant shift
shift in IC50 value, A105V/I109V mutation in GI.1 protease [3]: significant shift
reduction of GI.1 protease sensitivity, single I109V mutation [4]: did not result in a significant reduction
EC50 [5]: 13000 ± 2000 nM

CC(C)C(NC(=O)c1cc2ccccc2o1)C(=O)N[C@@H](CC1CCCCC1)C(=O)N[C@H](C=O)C[C@@H]1CCNC1=O (stereo partly drawn) [10c]
EC50 [6, 16]: 94 ± 14 nM
EC50 (HuNoV GI.1 replicon [7]; [17]): 16 ± 6 nM

Cc1cc(C(=O)NC(C(=O)NC(CC2CCCCC2)C(=O)NC(C=O)CC2CCNC2=O)C(C)C)no1 (stereo not drawn) [10a]
EC50 [6, 16]: 3800 ± 970 nM
EC50 (HuNoV GI.1 replicon [7]; [17]): 240 ± 110 nM

CC(C)C(NC(=O)c1cc2ccccc2[nH]1)C(=O)NC(CC1CCCCC1)C(=O)NC(C=O)CC1CCNC1=O (stereo not drawn) [10b]
EC50 [6, 16]: 230 ± 110 nM
EC50 (HuNoV GI.1 replicon [7]; [17]): 16 ± 9 nM

CC(C)C(NC(=O)c1ccc2ccccc2n1)C(=O)N[C@@H](CC1CCCCC1)C(=O)N[C@H](C=O)C[C@@H]1CCNC1=O (stereo partly drawn) [10d]
selectivity index (SI) [6]: > 1000
EC50 [6, 16]: 37 ± 16 nM
EC50 [8]: 30 ± 10 nM
CC50 [9]: 48000 ± 3000 nM
EC50 (HuNoV GI.1 replicon [7]; [17]): 12 ± 10 nM
fold more potent (EC50) (HuNoV GI.1 replicon [7]; versus the initial hit): about 100 fold
adverse effects on the host cells (HGT cells): without adverse effects
IC50 (GI.1 protease): 90 nM
improvement in the FRET assay, GI protease (GI.1 protease; versus the initial hit): ~ 300 fold
IC50 (GII protease): 120 nM
improvement in the FRET assay, GII protease (GII protease; versus the initial hit): ~ 300 fold
IC50 (GV protease): 490 nM
change in IC50 value, A105V/I109V mutation ([3]; GI.1 protease): 1.6 fold
shift in IC50 value, I109V mutation ([4]; GI.1 protease): 2.5 fold
water solubility (Water solubility): low water solubility
bioavailability, in words [10]: good
half-life (T1/2), in words [10]: long
maximal concentration (Cmax), in words [10]: high
Vss_obs ([10]; i.v. (5 mg/kg)): 3.867 ± 0.758 L/kg
AUC(0-t) ([10]; ip, i.p. (20 mg/kg)): 10800 ng·h/mL
Cmax ([10]; ip, i.p. (20 mg/kg)): 12700 ng/mL
Tmax ([10]; ip, i.p. (20 mg/kg)): 0.25 h
bioavailability ([10]; ip, i.p. (20 mg/kg)): 150%
half-life ([10]; ip, i.p. (20 mg/kg)): 4.26 ± 0.24 h
AUC(0-inf) ([10]; ip, i.p. (20 mg/kg)): 10800 ng·h/mL
MRT inf ([10]; ip, i.p. (20 mg/kg)): 1.34 ± 0.29 h
AUC(0-t) ([10]; iv, i.v. (5 mg/kg)): 1800 ± 63 ng·h/mL
half-life ([10]; iv, i.v. (5 mg/kg)): 5.64 ± 1.63 h
AUC(0-inf) ([10]; iv, i.v. (5 mg/kg)): 1810 ± 67 ng·h/mL
clearance ([10]; iv, i.v. (5 mg/kg)): 46 ± 1.7 mL/min/kg
MRT inf ([10]; iv, i.v. (5 mg/kg)): 1.4 ± 0.23 h
AUC(0-t) ([10]; sc, s.c. (5 mg/kg)): 1840 ± 717 ng·h/mL
Cmax ([10]; sc, s.c. (5 mg/kg)): 1570 ± 582 ng/mL
Tmax ([10]; sc, s.c. (5 mg/kg)): 0.42 ± 0.29 h
bioavailability ([10]; sc, s.c. (5 mg/kg)): 102%
half-life ([10]; sc, s.c. (5 mg/kg)): 6.02 ± 0.92 h
AUC(0-inf) ([10]; sc, s.c. (5 mg/kg)): 1860 ± 718 ng·h/mL
MRT inf ([10]; sc, s.c. (5 mg/kg)): 1.7 ± 0.16 h

O=C[C@H](C[C@@H]1CCNC1=O)NC(=O)[C@H](CC1CCCCC1)NC(=O)c1ccc2ccccc2n1 [compound 4]
selectivity index (SI) [6]: 35.6
EC50 ([6]; Norwalk virus, RAW264.7, RAW 264.7 cells, MTS, read-out: EC50, MNV-induced CPE): ~1000 nM
EC50 ([6]; RAW 264.7 cells, MTS, read-out: EC50, MNV-induced CPE): 700 ± 200 nM
EC50 [8]: 1700 ± 600 nM
CC50 [9]: 25300 ± 6100 nM
EC50 (HuNoV GI.1 replicon [7]; HGT cells, 72 h, replicon RNA relative to β actin, read-out: EC50, HuNoV GI.1 replicon): 1200 ± 600 nM
adverse effects on the host cells (HGT cells): no adverse effects
reduction in HuNoV GI.1 RNA (HuNoV GI.1 replicon [11]; after three passages): 3 log10
reduction in HuNoV GI.1 RNA (HuNoV GI.1 replicon [11]; after two passages): 2 log10
clearance of the HuNoV GI.1 replicon from cells (HuNoV GI.1 replicon [11]; two consecutive treatments with 10 µM, rebound with G418): could clear cells from the HuNoV GI.1 replicon completely
shift in EC50, MNV compound 4res variant [12]: 4.5 fold
EC50 [1, 18]: 3800 nM
EC50 [1, 19]: 4300 nM
EC50 [1, 20]: 11500 ± 900 nM
EC50 [1, 15]: 800 ± 300 nM
Fold Change in EC50 [1, 18]: 4.5
Fold Change in EC50 [1, 19]: 5.2
Fold Change in EC50 [1, 20]: 13.8
IC50 (GI.1 protease): 34000 nM
IC50 (GII protease): 40600 nM
IC50 (GV protease): 32500 nM
shift in IC50 value, A105V mutation in GI.1 protease [2]: not
shift in IC50 value, A105V/I109V mutation in GI.1 protease [3]: not
reduction of GI.1 protease sensitivity, single I109V mutation [4]: did not result in a significant reduction
area under the curve (AUC) value, in words [10]: high
bioavailability, in words [10]: good
half-life (T1/2), in words [10]: moderate
maximal concentration (Cmax), in words [10]: high
Vss_obs ([10]; i.v. (5 mg/kg)): 1.498 ± 0.714 L/kg
AUC(0-t) ([10]; ip, i.p. (20 mg/kg)): 14900 ng·h/mL
Cmax ([10]; ip, i.p. (20 mg/kg)): 14500 ng/mL
Tmax ([10]; ip, i.p. (20 mg/kg)): 0.25 h
bioavailability ([10]; ip, i.p. (20 mg/kg)): 72.1%
half-life ([10]; ip, i.p. (20 mg/kg)): 5.11 ± 1.07 h
AUC(0-inf) ([10]; ip, i.p. (20 mg/kg)): 15000 ng·h/mL
MRT inf ([10]; ip, i.p. (20 mg/kg)): 1.4 ± 0.06 h
AUC(0-t) ([10]; iv, i.v. (5 mg/kg)): 5160 ± 1320 ng·h/mL
half-life ([10]; iv, i.v. (5 mg/kg)): 5.5 ± 0.85 h
AUC(0-inf) ([10]; iv, i.v. (5 mg/kg)): 5190 ± 1300 ng·h/mL
clearance ([10]; iv, i.v. (5 mg/kg)): 16.8 ± 4.4 mL/min/kg
MRT inf ([10]; iv, i.v. (5 mg/kg)): 1.44 ± 0.3 h
AUC(0-t) ([10]; sc, s.c. (5 mg/kg)): 4060 ± 1140 ng·h/mL
Cmax ([10]; sc, s.c. (5 mg/kg)): 2200 ± 894 ng/mL
Tmax ([10]; sc, s.c. (5 mg/kg)): 0.58 ± 0.29 h
bioavailability ([10]; sc, s.c. (5 mg/kg)): 78.6%
half-life ([10]; sc, s.c. (5 mg/kg)): 5.63 ± 0.4 h
AUC(0-inf) ([10]; sc, s.c. (5 mg/kg)): 4110 ± 1140 ng·h/mL
MRT inf ([10]; sc, s.c. (5 mg/kg)): 2.95 ± 0.53 h
